Experimental data as given in article PMC11483813, “Bombesin-Targeted Delivery of β-Carboline-Based Ir(III) and Ru(II) Photosensitizers for a Selective Photodynamic Therapy of Prostate Cancer” (Inorganic Chemistry, 2024).
Values joined by “and” are separate entries in the source; they are usually repeats but may differ in a detail not shown here. Equal values may be shown once. Read-outs that look alike come from different tables or passages of the source. Residues, ends and D or L forms follow the SMILES beside them. *: point of attachment. X1 = Cn1c2ccccc2c2ccnc(-c3ccc(/C=C/C(=O)*)cn3)c21

How the values were obtained:
Type in all cases: cell-based, human
A549 lung cancer cells = settings: for PI (IC50,dark/IC50,light) A549: blue light 460 nm
Method: (§1) The effect of Ir-H, Ir-Me, Ru-H, and Ru-Me on cell viability was evaluated in the A549 lung cancer and PC-3 prostate cancer cell lines by MTT assays. PC-3 cells were specifically chosen due to their high expression levels of GRPR on their surface, allowing for further evaluation of the activity of the BN3-derived metallopeptides Ir-BN and Ru-BN.[38],[51] In contrast, A549 cells express low levels of GRPR.[52] MRC-5 fibroblasts were used as a nonmalignant cell model.[53]Table 3 reports the half maximal inhibitory concentration (IC50) values obtained after treating the cells either under dark conditions or upon exposure to blue light at a dose of 24.1 J cm^–2. The photocytotoxicity index (PI), defined as the IC50,dark/IC50,light, is provided for each compound.
(§2) Stock solutions of the complexes and metallopeptides were initially prepared at a concentration of 5 mM in DMSO and then diluted in sterile distilled water to achieve a final concentration of 1 mM, with a resulting DMSO concentration of 20% v/v. Cells were seeded into 96-well plates at a density of 2500 cells/well for A549, 3500 cells/well for PC-3, and 5500 cells/well for MRC-5. Following 24 h of incubation for attachment, cells were treated in triplicate with freshly prepared working solutions of the compounds in the culture medium at concentrations ranging from 0.001 to 100 μM. The maximum DMSO concentration in the working solutions was 2% (v/v). The working concentrations for each compound were adjusted based on their cytotoxicity. Following a 4 h incubation period to allow internalization of the compounds into the cells, the plates were kept in dark conditions or exposed to blue (460 nm) or red (655 nm) light for 1 h using an LED system (LuxLight), providing a total dose of 24.1 J cm^–2. All plates were incubated in the dark for an additional 43 h. Cells were then washed with phosphate-buffered saline (PBS), and 100 μL of fresh culture medium containing 10% of 3-[4,5-dimethylthiazol-2-yl]-2,5 diphenyl tetrazolium bromide (MTT) solution (0.5 mg/mL) (Sigma- Aldrich) was added to each well. After a 2 h incubation period, the formazan crystals were dissolved in DMSO, and the absorbance was measured at 570 nm using a Multiscan Plate Reader (Synergy 4, Biotek, Winooski, USA). The concentration causing a 50% reduction in cell viability (IC50) was determined for each compound with the Gen5 software (BioTek). At least three independent experiments were conducted for each compound.

MRC-5 fibroblasts = settings: for PI (IC50,dark/IC50,light) MRC-5: blue light 460 nm
Method: as §1, §2

[1] = system: PC-3 prostate cancer cells; settings: for PI (IC50,dark/IC50,light) PC-3: blue light 460 nm
Method: as §1, §2

PC-3 cells [2] = experiment: Mitochondrial membrane potential, JC-10 flow cytometry; settings: IC50,light 4 h, blue light 1 h, control 63.0 ± 10.6%
Method: Figure 12 Effect on mitochondria function. PC-3 cells were incubated with the indicated compounds at the corresponding IC50,light for 4 h at 37 °C and then exposed to blue light for 1 h. Cells incubated with the medium alone served as the negative control. (A) Confocal microscopy images of the cells. Nuclei were stained blue with Hoechst (λex: 350 nm; λem: 461 nm), and mitochondria were labeled with MitoTracker Red CMXRos (λex: 579 nm; λem: 599 nm). Insets show a 3× magnification of the cells. Scale bars represent 50 μm in 1× images and 20 μm in 3× images. (B) Flow cytometry analysis of the effect of the complexes on mitochondrial membrane potential. […] A decrease in the percentage of cells emitting orange fluorescence indicates a loss of MMP. p < 0.05 and ** p < 0.01 compared to control cells.
Flow cytometry analysis using the mitochondrial specific dye JC-10 confirmed this effect. The fluorescence of JC-10 undergoes a reversible change from green to orange as MMP increases, due to the formation of JC-10 aggregates within polarized mitochondria. This property allows for the simultaneous detection of healthy and depolarized mitochondria. In control cells, orange fluorescence emission corresponding to healthy mitochondria was detected in 63.0 ± 10.6% of cells (Figure 12B). […] Furthermore, the complexes’ ability to photocatalytically oxidize NADH, a primary electron donor for the mitochondrial electron transport chain, may contribute to the mitochondrial damage.
Flow cytometry assessment of the mitochondrial membrane depolarization: PC-3 cells were seeded on 12-well plates at a density of 100000 cells per well. 24 h later, cells were treated with the compounds as described above. Cells were subsequently harvested using trypsinization and incubated with JC-10 dye (Deltaclon) according to the manufacturer’s protocol. A Novocyte flow cytometer was employed to analyze the fluorescence emission of JC-10 in 10000 cells. Fluorescence was detected at 590 nm (FL2) to identify the percentage of cells with healthy mitochondria and at 529 nm (FL1) to determine the percentage of cells with depolarized mitochondria. Each compound was evaluated in three independent experiments, and the mean and standard deviation of the results were represented.

PC-3 cells [3] = experiment: Superoxide anion generation (ROS-ID Superoxide Detection Kit); settings: IC50,light 4 h, blue light 1 h
Method: The photocytotoxic effects of the complexes and metallopeptides were further elucidated by evaluating their ability to photogenerate ROS at the cellular level. PC-3 cells were treated with the compounds at the respective IC50,light and irradiated with blue light. Subsequently, ROS generation was measured using the 2′,7′-dichlorodihydrofluorescein diacetate (H2DCFDA) probe, which diffuses into cells and is oxidized by ROS to produce a green fluorescent signal. […] Nevertheless, to ascertain the potential contributions of other ROS to the photocytotoxic activity, the capacity of the compounds to undergo type I PDT processes, resulting in the production of superoxide anions (O2^•–), was examined using a specific fluorescent probe that emits an orange signal upon interaction with this radical. Ir-H, Ir-Me, and Ir-BN induced the most significant increase in O2^•– levels, with fold changes of 2.4, 3.5, and 3.4, respectively, compared to control cells. […] These findings highlight the diverse mechanisms of ROS generation employed by these compounds, in particular the Ir complexes, which may contribute to their overall photocytotoxic efficacy.
Figure 9 Intracellular ROS generation. PC-3 cells were treated with the indicated complexes and metallopeptides at their respective IC50,light for 4 h, followed by blue light irradiation for 1 h (460 nm, 24.1 J cm^–2). The elevation of general ROS (A) and superoxide anion (B) levels was determined with specific probes by flow cytometry. Bars represent the mean fold increase (±standard deviation) relative to control untreated cells from three independent experiments. * p < 0.05; ** p < 0.01, *** p < 0.001 compared to control cells.
A similar protocol was followed to evaluate superoxide production using the ROS-ID Superoxide Detection Kit (Enzo Life Sciences) according to the manufacturer’s instructions.

[4] = A549, 4 h incubation, blue light 1 h (460 nm, 24.1 J cm^–2), MTT after 48 h, read-out: IC50 A549 Light
[5] = A549, 4 h incubation, kept in the dark 1 h, MTT after 48 h, read-out: IC50 A549 Dark
[6] = MRC-5, 4 h incubation, blue light 1 h (460 nm, 24.1 J cm^–2), MTT after 48 h, read-out: IC50 MRC-5 Light
[7] = MRC-5, 4 h incubation, kept in the dark 1 h, MTT after 48 h, read-out: IC50 MRC-5 Dark
[8] = PC-3, 4 h incubation, blue light 1 h (460 nm, 24.1 J cm^–2), MTT after 48 h, read-out: IC50 PC-3 Light
[9] = PC-3, 4 h incubation, kept in the dark 1 h, MTT after 48 h, read-out: IC50 PC-3 Dark

Structure (SMILES) | IC50 (A549 lung cancer cells; [4]) [µM] | IC50 (A549 lung cancer cells; [5]) [µM] | PI (IC50,dark/IC50,light) A549 (A549 lung cancer cells; A549) | IC50 (MRC-5 fibroblasts; [6]) [µM] | IC50 (MRC-5 fibroblasts; [7]) [µM] | PI (IC50,dark/IC50,light) MRC-5 (MRC-5 fibroblasts; MRC-5) | IC50 [1, 8] [µM] | IC50 [1, 9] [µM] | PI (IC50,dark/IC50,light) PC-3 ([1]; PC-3) | population of cells emitting JC-10 orange fluorescence (PC-3 cells [2]) [%] | O2•– levels, fold change versus control cells (PC-3 cells [3]) [fold] | also measured
Cn1c2ccccc2c2ccnc(-c3ccc(/C=C/C(=O)O)cn3)c21.[Cl-].[Ir+3].[c-]1ccccc1-c1ccccn1.[c-]1ccccc1-c1ccccn1 [Ir-H] | 3.32 ± 1.1 | 35 ± 5.4 | 10.5 | 6.46 ± 0.801 | 39.1 ± 2.4 | 6.1 | 9.23 ± 0.63 | 32.2 ± 1.9 | 3.49 and 3.5 | 16.6 ± 9.2 | 2.4 | –
CC(C)C[C@H](NC(=O)[C@H](CC(C)C)NC(=O)[C@H](Cc1c[nH]cn1)NC(=O)CNC(=O)[C@@H](NC(=O)[C@H](C)NC(=O)[C@H](Cc1c[nH]c2ccccc12)NC(=O)[C@H](CCC(N)=O)NC(=O)[C@H](CC(N)=O)NC(=O)CNC(=O)[C@H](CC(C)C)NC(=O)[C@H](CCCNC(=N)N)NC(=O)[C@H](CCC(N)=O)NC(=O)/C=C/c1ccc(-c2nccc3c4ccccc4n(C)c23)nc1)C(C)C)C(N)=O [Ir-BN] (X1-QRLGNQWAVGHLL-NH2) | – | – | 5.4 | – | – | 2.8 | – | – | 4.1 | 16.0 ± 9.5 | 3.4 | IC50 (A549 lung cancer cells; 4 h): 12.6 ± 1.3 µM; IC50 (MRC-5 fibroblasts; 4 h): 28.7 ± 5.9 µM; IC50,light in MRC-5, fold higher than that of Ir-H (MRC-5 fibroblasts; MRC-5, blue light): 4.4 fold; IC50,dark in MRC-5, fold higher than that of Ir-H (MRC-5 fibroblasts; MRC-5, dark): 2.1 fold; IC50 ([1]; 4 h): 8.51 ± 0.8 µM; photoselectivity index (IC50,dark in nonmalignant cells/IC50,light in GRPR overexpressing cancer cells) ([1]; 24 h): 9.5; selectivity for PC-3 cells with respect to MRC-5 fibroblasts ([1]; after blue light): 3.4 fold
Cn1c2ccccc2c2ccnc(-c3ccc(/C=C/C(=O)O)cn3)c21.[Cl-].[Cl-].[Ru+2].c1ccc(-c2ccccn2)nc1.c1ccc(-c2ccccn2)nc1 [Ru-H] | 56.7 ± 1.6 | 67.8 ± 6.7 | 1.2 | 43.5 ± 4.5 | 53.9 ± 5.4 | 1.2 | 34.8 ± 4.3 | 70.4 ± 2.7 | 2.0 | 28.2 ± 7.8 | – | PI (IC50,dark/IC50,red light) MRC-5 (MRC-5 fibroblasts; MRC-5, red light 655 nm): 0.9; IC50 (MRC-5 fibroblasts; MRC-5, red light 1 h (655 nm, 24.1 J cm^–2), MTT after 48 h, read-out: IC50,redlight MRC-5): 62.3 ± 7.1 µM; PI (IC50,dark/IC50,red light) PC-3 ([1]; PC-3, red light 655 nm): 1.3; IC50 ([1]; PC-3, red light 1 h (655 nm, 24.1 J cm^–2), MTT after 48 h, read-out: IC50,redlight PC-3): 54.3 ± 4.7 µM
COC(=O)/C=C/c1ccc(-c2nccc3c4ccccc4n(C)c23)nc1.[Cl-].[Ir+3].[c-]1ccccc1-c1ccccn1.[c-]1ccccc1-c1ccccn1 [Ir-Me] | 0.0334 ± 0.0068 | 0.471 ± 0.031 | 14.2 | 0.0313 ± 0.019 | 1.12 ± 0.31 | 35.8 | 0.0723 ± 0.031 | 1.17 ± 0.29 | 16.2 | 21.2 ± 4.9 | 3.5 | –
